Data set [1] concerns Coronavirus (MHV-3 Strain). The data set is classed as cell-based, Coronavirus MHV-3 Strain genus Betacoronavirus.
A short description of data set [2]: Solubility in water when preparing calibration standards. The format is physicochemical. As for the experimental part: The calibration curve used the following standards: Standard #1 - 99.5% chlorhexidine (CAS 55-56-1) from Sigma-Aldrich, Standard #2 - 20% solution of chlorhexidine digluconate in solution (CAS 18472-51-0). Samples with both standards were prepared in deionized water. […] With Standard #2 it was possible to obtain a good reproducibility of the areas; therefore, it was decided to perform the calibration curve with standard #2.

“And” between values parts separate entries of the source, which are not always exact repeats. Equal entries are not always repeated. Where two headings read alike, the source gives them in different places.

`N=C(NCCCCCCNC(=N)NC(=N)Nc1ccc(Cl)cc1)NC(=N)Nc1ccc(Cl)cc1` [5% Chlorhexidine, 1,1'-hexamethylene-bis(5-(p-chlorophenyl)-biguanide)]: the “time after which activity was lost” value in data set [1] (concentration of 5%) is not above 10 min. In addition, the “Infectivity Reduction (Virus Titer 10^8/mL)” value in data set [1] (contact time 1 minute) was 10^4; in data set [1] (contact time 5 minutes), 10^4; in data set [1] (contact time 10 minutes), 10^5. In addition, the “Coronavirus (MHV-3 Strain) inactivation” value in data set [1] (contact time 1 minute, listed as Chlorhexidine 5.0%) is 99.99%; in data set [1] (contact time 5 minutes, listed as Chlorhexidine 5.0%), 99.99%; in data set [1] (contact time 10 minutes) it was 99.9% and 99.99%; in data set [1] (contact time 10 minutes, listed as Chlorhexidine 5.0%), 99.9%; in data set [1] (contact time 1 hour), “Not effective”; in data set [1] (contact time 4 hours) it was “Not effective”. For the same molecule, the “Coronavirus (MHV-3 Strain) inactivation” value in data set [1] (contact time Immediate) is listed as “Not Effective”.

For the molecule `[H]/N=C(\N/C(=N/[H])NCCCCCCNC(=N)NC(=N)Nc1ccc(Cl)cc1)Nc1ccc(Cl)cc1` [Chlorhexidine, 1,1'-hexamethylene-bis(5-(p-chlorophenyl)-biguanide)], in data set [2], the solubility in water result is “very low solubility in water”.

As for `N=C(NCCCCCCNC(=N)NC(=N)Nc1ccc(Cl)cc1)NC(=N)Nc1ccc(Cl)cc1.O=C(O)[C@H](O)[C@@H](O)[C@H](O)[C@H](O)CO.O=C(O)[C@H](O)[C@@H](O)[C@H](O)[C@H](O)CO` [chlorhexidine digluconate], the solubility in water result in data set [2] (deionized water) was “no solubility problems”.
